In assay [1] the target is T1, Aβ oligomers (Homo sapiens, UniProt P05067).
T1 construct: Ser^26 depsipeptide iso-Aβ (1–42) was used; made in house; host or cells: chemical peptide synthesis (no expression host)
In words: Isothermal titration calorimetry (ITC) binding to Aβ oligomers. Particulars: KD ITC, Table 1, PBS pH 7.4, 285 K, Aβ 100 µM in cell, ligand 250 µM in syringe, two independent site model. The procedure: The binding affinities of 2b–2i to Aβ oligomers were tested in ITC experiments.
In this work, Ser^26 depsipeptide iso-Aβ (1–42) was used, which was synthesized and purified as described previously. The lyophilized iso-Aβ (1–42) was dissolved in MilliQ water to a concentration of 1 mg mL^−1, sonicated for 3 min and the pH was set to 7.0 to initiate an O to N acyl migration, whereby the native sequence can be readily formed. The sample was incubated at room temperature for 10 min. Then the pH was set to 11 and the sample was kept at room temperature for additional 2 h. After the incubation, the Aβ stock solution was aliquoted and stored at −20 °C until use. To obtain Aβ oligomers, the 1 mg mL^−1 aliquot was diluted to a final concentration of 50 μM with 26.67 mM PBS and the pH was set to 7.4 with 1 M HCl. The sample was incubated at 37 °C for 3 h.
Isothermal calorimetric titrations were performed with a Microcal VP-ITC microcalorimeter in pH 7.4 PBS buffer solution. In individual titrations, 10 µL portions of the ligand containing solution were repeatedly injected from the computer-controlled 300-µL microsyringe at intervals of 300 s into the Aβ oligomer solution prepared in the same buffer as the ligand. All measurements were carried out at 285 K. The Aβ concentration in the cell was 100 µM and the total ligand concentration was 250 µM in the syringe and the titration was stopped when the precipitation of the Aβ aggregates became excessive. Control experiments were performed by injecting the ligand into a cell containing buffer with no target, and the heats of dilution were subtracted from those measured in the presence of Aβ. The experimental data were fitted to the two independent site binding models by using a nonlinear least-squares procedure, with ΔHb, ΔHb’, Kd, Kd’ ([…]), n and n’ (number of binding sites for monomer), as adjustable parameters.
In general terms: Isothermal titration calorimetry measures the heat released or taken up as one component is titrated into another.

For assay [2], the target named is T1, Aβ oligomers. Briefly: Sandwich ELISA binding of biotin-tagged conjugates to Aβ. An excerpt:
To study the role of certain structure elements in the binding affinity, a set of new foldamer sequences were designed (Figure 2) and ligated to lysine-dendron scaffolds having a focal symmetry. This template with biotin affinity tag can be easily synthesized by solid phase peptide synthesis and immobilized on a streptavidin coated support such as the surface of the ELISA plate. Structural changes included fine-tuning the side-chain properties (2b–2d), changing the position of ionic residues (2e) and introducing bulky bicyclic side-chains (2f–2i).
The binding affinities of 2b–2i to Aβ oligomers were tested in ITC experiments. In such cases where the fitting failed due to low heat response or poor solubility, sandwich ELISA experiments were performed to enable the comparison of all conjugates (see Supporting Information for details).
The apparent dissociation constants for the complete set of new conjugates were calculated individually from the data of the ELISA experiments as well. Comparing the KD values of 2f–2i in this case, the replacement of ACHC to ABHC had only a minor effect on the Aβ binding. The cyclic β-amino acid ACHC not only provides the helical conformation of such a short foldamer but also protects the ionic residues from solvent upon binding due to its hydrophobicity.
On the technique in general: An ELISA detects its analyte on a solid surface through an enzyme-linked reagent.

Kd data for 4 molecules are collected here from paper PMC6222781, “Structural Optimization of Foldamer-Dendrimer Conjugates as Multivalent Agents against the Toxic Effects of Amyloid Beta Oligomers” (Molecules : A Journal of Synthetic Chemistry and Natural …, 2018).

T1 sequence (P05067 672-713 limits assumed): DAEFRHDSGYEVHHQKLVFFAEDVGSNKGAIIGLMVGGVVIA

Regarding `N=C(N)NCCC[C@@H](CC(=O)N[C@H]1CCCC[C@@H]1C(=O)N[C@H]1CCCC[C@@H]1C(=O)N[C@@H](CC(=O)O)CC(=O)N[C@H]1CCCC[C@@H]1C(=O)NCC(=O)NCC(=O)N[C@@H](CSC1CC(=O)N(CCC(=O)NCCCC[C@H](NC(=O)CCN2C(=O)CC(SC[C@H](NC(=O)CNC(=O)CNC(=O)[C@H]3CCCC[C@@H]3NC(=O)C[C@H](CC(=O)O)NC(=O)[C@H]3CCCC[C@@H]3NC(=O)[C@H]3CCCC[C@@H]3NC(=O)C[C@H](CCCNC(=N)N)NC(=O)[C@H]3CCCC[C@@H]3N)C(N)=O)C2=O)C(=O)NCCCC[C@H](NC(=O)[C@H](CCCCNC(=O)CCN2C(=O)CC(SC[C@H](NC(=O)CNC(=O)CNC(=O)[C@H]3CCCC[C@@H]3NC(=O)C[C@H](CC(=O)O)NC(=O)[C@H]3CCCC[C@@H]3NC(=O)[C@H]3CCCC[C@@H]3NC(=O)C[C@H](CCCNC(=N)N)NC(=O)[C@H]3CCCC[C@@H]3N)C(N)=O)C2=O)NC(=O)CCN2C(=O)CC(SC[C@H](NC(=O)CNC(=O)CNC(=O)[C@H]3CCCC[C@@H]3NC(=O)C[C@H](CC(=O)O)NC(=O)[C@H]3CCCC[C@@H]3NC(=O)[C@H]3CCCC[C@@H]3NC(=O)C[C@H](CCCNC(=N)N)NC(=O)[C@H]3CCCC[C@@H]3N)C(N)=O)C2=O)C(=O)N[C@@H](CCCCNC(=O)CCCC[C@@H]2SC[C@@H]3NC(=O)N[C@@H]32)C(N)=O)C1=O)C(N)=O)NC(=O)[C@H]1CCCC[C@@H]1N` (stereo partly drawn) [Compound 2a], the Kd (as a rule, the equilibrium constant for the complex coming apart) on Aβ oligomers [1] (first binding stage) is 0.0276 ± 0.00774 µM; on Aβ oligomers [1] (second binding stage), 0.24 ± 0.0687 µM; at Aβ oligomers [2] it was 0.00095 ± 6e-05 µM.

As for `CC1(C)[C@H]2C[C@H](NC(=O)[C@H]3CCCC[C@@H]3NC(=O)C[C@H](CCCNC(=N)N)NC(=O)[C@H]3CCCC[C@@H]3N)[C@@H](C(=O)N[C@@H](CC(=O)O)CC(=O)N[C@H]3CCCC[C@@H]3C(=O)NCC(=O)NCC(=O)N[C@@H](CSC3CC(=O)N(CCC(=O)NCCCC[C@H](NC(=O)CCN4C(=O)CC(SC[C@H](NC(=O)CNC(=O)CNC(=O)[C@H]5CCCC[C@@H]5NC(=O)C[C@H](CC(=O)O)NC(=O)[C@@H]5[C@@H](NC(=O)[C@H]6CCCC[C@@H]6NC(=O)C[C@H](CCCNC(=N)N)NC(=O)[C@H]6CCCC[C@@H]6N)C[C@H]6C[C@@H]5C6(C)C)C(N)=O)C4=O)C(=O)NCCCC[C@H](NC(=O)[C@H](CCCCNC(=O)CCN4C(=O)CC(SC[C@H](NC(=O)CNC(=O)CNC(=O)[C@H]5CCCC[C@@H]5NC(=O)C[C@H](CC(=O)O)NC(=O)[C@@H]5[C@@H](NC(=O)[C@H]6CCCC[C@@H]6NC(=O)C[C@H](CCCNC(=N)N)NC(=O)[C@H]6CCCC[C@@H]6N)C[C@H]6C[C@@H]5C6(C)C)C(N)=O)C4=O)NC(=O)CCN4C(=O)CC(SC[C@H](NC(=O)CNC(=O)CNC(=O)[C@H]5CCCC[C@@H]5NC(=O)C[C@H](CC(=O)O)NC(=O)[C@@H]5[C@@H](NC(=O)[C@H]6CCCC[C@@H]6NC(=O)C[C@H](CCCNC(=N)N)NC(=O)[C@H]6CCCC[C@@H]6N)C[C@H]6C[C@@H]5C6(C)C)C(N)=O)C4=O)C(=O)N[C@@H](CCCCNC(=O)CCCC[C@@H]4SC[C@@H]5NC(=O)N[C@@H]54)C(N)=O)C3=O)C(N)=O)[C@@H]1C2` (stereo partly drawn) [Compound 2h], the Kd is 0.00861 ± 0.00564 µM on Aβ oligomers [1] (first binding stage), 0.079 ± 0.0459 µM on Aβ oligomers [1] (second binding stage) and 0.00135 ± 8e-05 µM on Aβ oligomers [2].

Consider `CC1(C)[C@H]2C[C@H](N)[C@@H](C(=O)N[C@@H](CCCNC(=N)N)CC(=O)N[C@H]3CCCC[C@@H]3C(=O)N[C@H]3CCCC[C@@H]3C(=O)N[C@@H](CC(=O)O)CC(=O)N[C@H]3CCCC[C@@H]3C(=O)NCC(=O)NCC(=O)N[C@@H](CSC3CC(=O)N(CCC(=O)NCCCC[C@H](NC(=O)CCN4C(=O)CC(SC[C@H](NC(=O)CNC(=O)CNC(=O)[C@H]5CCCC[C@@H]5NC(=O)C[C@H](CC(=O)O)NC(=O)[C@H]5CCCC[C@@H]5NC(=O)[C@H]5CCCC[C@@H]5NC(=O)C[C@H](CCCNC(=N)N)NC(=O)[C@@H]5[C@@H](N)C[C@H]6C[C@@H]5C6(C)C)C(N)=O)C4=O)C(=O)NCCCC[C@H](NC(=O)[C@H](CCCCNC(=O)CCN4C(=O)CC(SC[C@H](NC(=O)CNC(=O)CNC(=O)[C@H]5CCCC[C@@H]5NC(=O)C[C@H](CC(=O)O)NC(=O)[C@H]5CCCC[C@@H]5NC(=O)[C@H]5CCCC[C@@H]5NC(=O)C[C@H](CCCNC(=N)N)NC(=O)[C@@H]5[C@@H](N)C[C@H]6C[C@@H]5C6(C)C)C(N)=O)C4=O)NC(=O)CCN4C(=O)CC(SC[C@H](NC(=O)CNC(=O)CNC(=O)[C@H]5CCCC[C@@H]5NC(=O)C[C@H](CC(=O)O)NC(=O)[C@H]5CCCC[C@@H]5NC(=O)[C@H]5CCCC[C@@H]5NC(=O)C[C@H](CCCNC(=N)N)NC(=O)[C@@H]5[C@@H](N)C[C@H]6C[C@@H]5C6(C)C)C(N)=O)C4=O)C(=O)N[C@@H](CCCCNC(=O)CCCC[C@@H]4SC[C@@H]5NC(=O)N[C@@H]54)C(N)=O)C3=O)C(N)=O)[C@@H]1C2` (stereo partly drawn) [Compound 2f], for which the dissociation constant Kd stood at 0.0193 ± 0.0094 µM on Aβ oligomers [1] (first binding stage), 0.816 ± 0.467 µM on Aβ oligomers [1] (second binding stage) and 0.00179 ± 9e-05 µM on Aβ oligomers [2].

Take `N=C(N)NCCC[C@@H](CC(=O)N[C@H]1CCCC[C@@H]1C(=O)N[C@H]1CCCC[C@@H]1C(=O)N[C@@H](CCC(=O)O)CC(=O)N[C@H]1CCCC[C@@H]1C(=O)NCC(=O)NCC(=O)N[C@@H](CSC1CC(=O)N(CCC(=O)NCCCC[C@H](NC(=O)CCN2C(=O)CC(SC[C@H](NC(=O)CNC(=O)CNC(=O)[C@H]3CCCC[C@@H]3NC(=O)C[C@H](CCC(=O)O)NC(=O)[C@H]3CCCC[C@@H]3NC(=O)[C@H]3CCCC[C@@H]3NC(=O)C[C@H](CCCNC(=N)N)NC(=O)[C@H]3CCCC[C@@H]3N)C(N)=O)C2=O)C(=O)NCCCC[C@H](NC(=O)[C@H](CCCCNC(=O)CCN2C(=O)CC(SC[C@H](NC(=O)CNC(=O)CNC(=O)[C@H]3CCCC[C@@H]3NC(=O)C[C@H](CCC(=O)O)NC(=O)[C@H]3CCCC[C@@H]3NC(=O)[C@H]3CCCC[C@@H]3NC(=O)C[C@H](CCCNC(=N)N)NC(=O)[C@H]3CCCC[C@@H]3N)C(N)=O)C2=O)NC(=O)CCN2C(=O)CC(SC[C@H](NC(=O)CNC(=O)CNC(=O)[C@H]3CCCC[C@@H]3NC(=O)C[C@H](CCC(=O)O)NC(=O)[C@H]3CCCC[C@@H]3NC(=O)[C@H]3CCCC[C@@H]3NC(=O)C[C@H](CCCNC(=N)N)NC(=O)[C@H]3CCCC[C@@H]3N)C(N)=O)C2=O)C(=O)N[C@@H](CCCCNC(=O)CCCC[C@@H]2SC[C@@H]3NC(=O)N[C@@H]32)C(N)=O)C1=O)C(N)=O)NC(=O)[C@H]1CCCC[C@@H]1N` (stereo partly drawn) [Compound 2c]: the values for the Kd at Aβ oligomers [1] (first binding stage), on Aβ oligomers [1] (second binding stage) and at Aβ oligomers [2] were 0.00253 ± 0.00181 µM, 0.175 ± 0.0464 µM and 0.00192 ± 0.00021 µM, respectively.
